Patent US20220296595A1, “CDK INHIBITORS” (QILU REGOR THERAPEUTICS INC., priority 2019, published 2022)
pIC50: −log10 of the molar value.

molecular target: T1, CDK4/CyclinD1 (Homo sapiens, UniProt P11802); test: Assay for inhibition of CDK4/CyclinD1 (Caliper microfluidic kinase assay); type: biochemical; conditions: CDK4/CyclinD1, 200 μM ATP
T1 construct: purchased Thermofisher PR8064A
Outline: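 Caliper microfluidic mobility-shift assay tracking phosphorylation of 1 μM FL-34 peptide by 1 nM CDK4/CyclinD1 with 200 μM ATP in HEPES pH 7.5 buffer with 10 mM MgCl2. Reaction ran 3 h at room temperature, was stopped with EDTA, and IC50 came from a 4-parameter sigmoidal fit.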

T1 sequence (P11802 whole entry): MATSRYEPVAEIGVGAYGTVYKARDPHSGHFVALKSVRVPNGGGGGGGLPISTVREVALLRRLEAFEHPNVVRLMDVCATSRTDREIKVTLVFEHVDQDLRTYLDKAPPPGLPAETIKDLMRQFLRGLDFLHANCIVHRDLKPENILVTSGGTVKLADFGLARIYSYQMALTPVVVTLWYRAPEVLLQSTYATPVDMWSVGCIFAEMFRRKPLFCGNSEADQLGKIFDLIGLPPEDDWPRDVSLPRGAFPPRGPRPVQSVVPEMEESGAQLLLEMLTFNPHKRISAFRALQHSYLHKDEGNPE
T1 sequence (P24385 whole entry partner): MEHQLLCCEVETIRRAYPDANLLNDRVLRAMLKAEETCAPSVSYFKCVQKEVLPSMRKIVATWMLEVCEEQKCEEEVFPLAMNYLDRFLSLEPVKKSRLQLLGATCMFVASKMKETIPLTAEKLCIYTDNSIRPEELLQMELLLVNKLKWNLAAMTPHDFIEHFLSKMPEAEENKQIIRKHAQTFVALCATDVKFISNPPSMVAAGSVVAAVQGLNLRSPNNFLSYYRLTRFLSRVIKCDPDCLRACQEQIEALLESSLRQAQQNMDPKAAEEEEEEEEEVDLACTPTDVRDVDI

`O=C1CCNCCN1c1ccc(Nc2ncc(F)c(-c3ccn4ncc(C5CC5)c4c3)n2)nc1` [compound 195] and `CCN1CCN(c2ccc(Nc3ncc(F)c(-c4ccn5ncc(C(C)C)c5c4)n3)nc2)C(=O)C1` [compound 48] cannot be ordered by pIC50: greater than 8.00 for the first, greater than 8.00 for the second.

`COc1nc(-c2ccnc(Nc3ccc(N4CCC(C)(N)CC4)cn3)n2)cc2c1ncn2C(C)C` [compound 118] and `CC(C)c1cnn2ccc(-c3ccnc(Nc4ccc(N5CCC(N)CC5=O)cn4)n3)cc12` (stereo not shown) [compound 203] cannot be ordered by pIC50: greater than 8.00 for the first, greater than 8.00 for the second.

First: CC(C)c1cnn2ccc(-c3ccnc(Nc4ccc(N5CCN(C6CNC6)CC5=O)cn4)n3)cc12 [Synthetic Example 40]
Second: CC(C)c1cnn2ccc(-c3ccnc(Nc4ccc(N5CC(N(C)C)CCC5=O)cn4)n3)cc12 (stereo not shown) [compound 156]
The pIC50 of the first is higher: greater than 8.00 for the first, 7.00 to 8.00 for the second. The first is the more potent here.

`CN(C)C1CCN(c2ccc(Nc3nccc(-c4ccn5ncc(C(C)(C)C)c5c4)n3)nc2)C(=O)C1` (stereo not shown) [Synthetic Example 175] and `CCN(CC)C1CCN(c2ccc(Nc3nccc(-c4ccn5ncc(C(C)C)c5c4)n3)nc2)C(=O)C1` (stereo not shown) [compound 176] cannot be ordered by pIC50: greater than 8.00 for the first, greater than 8.00 for the second.

molecular target: T2, CDK6/CyclinD3 (Homo sapiens, UniProt Q00534); test: Assay for inhibition of CDK6/CyclinD3 (Caliper microfluidic kinase assay); type: biochemical; conditions: CDK6/CyclinD3, 300 μM ATP
T2 construct: purchased Carna 04-107
T2 sequence (Q00534 whole entry): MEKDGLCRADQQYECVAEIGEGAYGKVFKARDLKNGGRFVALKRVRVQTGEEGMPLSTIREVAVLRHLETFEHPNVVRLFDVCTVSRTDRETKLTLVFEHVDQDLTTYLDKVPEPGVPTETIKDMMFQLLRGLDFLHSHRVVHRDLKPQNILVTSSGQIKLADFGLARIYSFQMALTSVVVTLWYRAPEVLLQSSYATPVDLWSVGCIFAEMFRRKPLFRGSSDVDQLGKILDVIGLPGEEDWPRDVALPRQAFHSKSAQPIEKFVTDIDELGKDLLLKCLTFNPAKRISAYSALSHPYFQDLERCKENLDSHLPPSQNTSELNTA
T2 sequence (P30281 whole entry partner): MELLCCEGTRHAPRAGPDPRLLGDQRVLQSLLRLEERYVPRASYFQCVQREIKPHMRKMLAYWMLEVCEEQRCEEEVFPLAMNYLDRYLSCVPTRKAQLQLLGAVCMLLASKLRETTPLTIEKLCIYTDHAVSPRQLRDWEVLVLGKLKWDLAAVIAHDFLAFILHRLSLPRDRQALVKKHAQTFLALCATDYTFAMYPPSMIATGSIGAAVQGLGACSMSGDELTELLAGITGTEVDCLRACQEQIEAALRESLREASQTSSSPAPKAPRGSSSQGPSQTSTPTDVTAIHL
Outline: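 Caliper mobility-shift readout of FAM-labelled peptide (FL-34, 1 μM) phosphorylation by 2 nM CDK6/CyclinD3 at 300 μM ATP in HEPES pH 7.5 buffer with MgCl2, DTT; 3 h at room temperature, EDTA stop. IC50 from 4-parameter sigmoidal fit.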

`O=C1CCNCCN1c1ccc(Nc2ncc(F)c(-c3ccn4ncc(C5CC5)c4c3)n2)nc1` [compound 195] and `CCN1CCN(c2ccc(Nc3ncc(F)c(-c4ccn5ncc(C(C)C)c5c4)n3)nc2)C(=O)C1` [compound 48] fall in the same range of pIC50: 7.00 to 8.00 for the first, 7.00 to 8.00 for the second.

`COc1nc(-c2ccnc(Nc3ccc(N4CCC(C)(N)CC4)cn3)n2)cc2c1ncn2C(C)C` [compound 118] and `CC(C)c1cnn2ccc(-c3ccnc(Nc4ccc(N5CCC(N)CC5=O)cn4)n3)cc12` (stereo not shown) [compound 203] fall in the same range of pIC50: 7.00 to 8.00 for the first, 7.00 to 8.00 for the second.

First: CC(C)c1cnn2ccc(-c3ccnc(Nc4ccc(N5CCN(C6CNC6)CC5=O)cn4)n3)cc12 [Synthetic Example 40]
Second: CC(C)c1cnn2ccc(-c3ccnc(Nc4ccc(N5CC(N(C)C)CCC5=O)cn4)n3)cc12 (stereo not shown) [compound 156]
The pIC50 of the first is higher: 7.00 to 8.00 for the first, 6.00 to 7.00 for the second.

First: CN(C)C1CCN(c2ccc(Nc3nccc(-c4ccn5ncc(C(C)(C)C)c5c4)n3)nc2)C(=O)C1 (stereo not shown) [Synthetic Example 175]
Second: CCN(CC)C1CCN(c2ccc(Nc3nccc(-c4ccn5ncc(C(C)C)c5c4)n3)nc2)C(=O)C1 (stereo not shown) [compound 176]
The pIC50 of the first is higher: greater than 8.00 for the first, 7.00 to 8.00 for the second.

molecular target: T3, CDK2/CyclinE1 (Homo sapiens, UniProt P24941); test: Assay for inhibition of CDK2/CyclinE1 (Caliper microfluidic kinase assay); type: biochemical; conditions: CDK2/CyclinE1, 100 μM ATP; read-out: CDK2 IC50
T3 construct: purchased SignalChem C29-18G
Outline: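 Caliper microfluidic mobility-shift assay: 5 nM CDK2/CyclinE1, 100 μM ATP, 5 μM FL-18 peptide (5-FAM-QSPKKG-NH2) in pH 7.5 HEPES buffer with MgCl2, DTT, BSA, Triton X-100. Incubated 3 hours at room temperature, EDTA-stopped; IC50 from 4-parameter sigmoidal fit.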

First: O=C1CCNCCN1c1ccc(Nc2ncc(F)c(-c3ccn4ncc(C5CC5)c4c3)n2)nc1 [compound 195]
Second: CCN1CCN(c2ccc(Nc3ncc(F)c(-c4ccn5ncc(C(C)C)c5c4)n3)nc2)C(=O)C1 [compound 48]
The pIC50 of the first is lower: 6.00 to 7.00 for the first, 7.00 to 8.00 for the second.

First: COc1nc(-c2ccnc(Nc3ccc(N4CCC(C)(N)CC4)cn3)n2)cc2c1ncn2C(C)C [compound 118]
Second: CC(C)c1cnn2ccc(-c3ccnc(Nc4ccc(N5CCC(N)CC5=O)cn4)n3)cc12 (stereo not shown) [compound 203]
The pIC50 of the first is lower: less than 6.00 for the first, greater than 8.00 for the second.

`CC(C)c1cnn2ccc(-c3ccnc(Nc4ccc(N5CCN(C6CNC6)CC5=O)cn4)n3)cc12` [Synthetic Example 40] and `CC(C)c1cnn2ccc(-c3ccnc(Nc4ccc(N5CC(N(C)C)CCC5=O)cn4)n3)cc12` (stereo not shown) [compound 156] fall in the same range of pIC50: 7.00 to 8.00 for the first, 7.00 to 8.00 for the second.

First: CN(C)C1CCN(c2ccc(Nc3nccc(-c4ccn5ncc(C(C)(C)C)c5c4)n3)nc2)C(=O)C1 (stereo not shown) [Synthetic Example 175]
Second: CCN(CC)C1CCN(c2ccc(Nc3nccc(-c4ccn5ncc(C(C)C)c5c4)n3)nc2)C(=O)C1 (stereo not shown) [compound 176]
The pIC50 of the first is higher: greater than 8.00 for the first, 7.00 to 8.00 for the second.

system: T47D breast cancer cells; test: Anti-proliferation assay in T47D cell (Cyquant, day 6); type: cell-based, human; conditions: Homo sapiens, T47D, anti-proliferation, T47D cells; read-out: T47D IC50
Outline: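 Cells were grown in RPMI 1640 with 10% FBS at 37 °C and dosed the day after plating at ten concentrations, 10 μM to 0.51 nM in 3-fold steps. CyQuant fluorescence (ex 485/em 535 nm) was read on day 6. IC50 was fitted from baseline-subtracted viability curves, with the baseline read after overnight culture.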

`O=C1CCNCCN1c1ccc(Nc2ncc(F)c(-c3ccn4ncc(C5CC5)c4c3)n2)nc1` [compound 195] and `CCN1CCN(c2ccc(Nc3ncc(F)c(-c4ccn5ncc(C(C)C)c5c4)n3)nc2)C(=O)C1` [compound 48] cannot be ordered by pIC50: greater than 7.00 for the first, greater than 7.00 for the second.

First: COc1nc(-c2ccnc(Nc3ccc(N4CCC(C)(N)CC4)cn3)n2)cc2c1ncn2C(C)C [compound 118]
Second: CC(C)c1cnn2ccc(-c3ccnc(Nc4ccc(N5CCC(N)CC5=O)cn4)n3)cc12 (stereo not shown) [compound 203]
The pIC50 of the first is lower: 6.30 to 7.00 for the first, greater than 7.00 for the second. The second is the more potent here.

Compared with `CC(C)c1cnn2ccc(-c3ccnc(Nc4ccc(N5CC(N(C)C)CCC5=O)cn4)n3)cc12` (stereo not shown) [compound 156], `CCN(CC)C1CCN(c2ccc(Nc3nccc(-c4ccn5ncc(C(C)C)c5c4)n3)nc2)C(=O)C1` (stereo not shown) [compound 176] is higher in pIC50: 6.30 to 7.00 for the first, greater than 7.00 for the second.

With `CN(C)C1CCN(c2ccc(Nc3nccc(-c4ccn5ncc(C(C)(C)C)c5c4)n3)nc2)C(=O)C1` (stereo not shown) [Synthetic Example 175] the pIC50 was greater than 7.00.

same assay, conditions: Homo sapiens, T47D, read-out: T47D IC50

With `CC(C)c1cnn2ccc(-c3ccnc(Nc4ccc(N5CCN(C6CNC6)CC5=O)cn4)n3)cc12` [Synthetic Example 40] the pIC50 was greater than 7.00.

system: phosphorylation of Retinoblastoma Protein (pRb Ser807/811 or Ser780) in T47D cells; test: Inhibition of phosphorylation of retinoblastoma protein (pRb) in T47D cell (ELISA); type: cell-based, human; conditions: Homo sapiens, T47D, read-out: Phospho T47D Ser807 IC50
Outline: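 T47D cells in RPMI 1640 + 10% FBS, adhered overnight, then treated 24 h with 3-fold compound titrations (top concentration […]). Lysates assayed by sandwich ELISA for pRb Ser807/811 or Ser780 with HRP/TMB detection. IC50 from 4-parameter sigmoidal fit.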

`CC(C)c1cnn2ccc(-c3ccnc(Nc4ccc(N5CCN(C6CNC6)CC5=O)cn4)n3)cc12` [Synthetic Example 40] showed a pIC50 greater than 7.00.

same assay, conditions: Homo sapiens, T47D, read-out: Phospho T47D Ser807 IC50, pRb Ser807 phosphorylation, T47D cells

`O=C1CCNCCN1c1ccc(Nc2ncc(F)c(-c3ccn4ncc(C5CC5)c4c3)n2)nc1` [compound 195] and `CCN1CCN(c2ccc(Nc3ncc(F)c(-c4ccn5ncc(C(C)C)c5c4)n3)nc2)C(=O)C1` [compound 48] cannot be ordered by pIC50: greater than 7.00 for the first, greater than 7.00 for the second.

`COc1nc(-c2ccnc(Nc3ccc(N4CCC(C)(N)CC4)cn3)n2)cc2c1ncn2C(C)C` [compound 118] and `CC(C)c1cnn2ccc(-c3ccnc(Nc4ccc(N5CCC(N)CC5=O)cn4)n3)cc12` (stereo not shown) [compound 203] cannot be ordered by pIC50: greater than 7.00 for the first, greater than 7.00 for the second.

`CC(C)c1cnn2ccc(-c3ccnc(Nc4ccc(N5CC(N(C)C)CCC5=O)cn4)n3)cc12` (stereo not shown) [compound 156] and `CCN(CC)C1CCN(c2ccc(Nc3nccc(-c4ccn5ncc(C(C)C)c5c4)n3)nc2)C(=O)C1` (stereo not shown) [compound 176] cannot be ordered by pIC50: greater than 7.00 for the first, greater than 7.00 for the second.

`CN(C)C1CCN(c2ccc(Nc3nccc(-c4ccn5ncc(C(C)(C)C)c5c4)n3)nc2)C(=O)C1` (stereo not shown) [Synthetic Example 175] gave a pIC50 greater than 7.00.
